Experimental data reported in patent US20120270237A9, “METHODS FOR THE IDENTIFICATION OF KINASE INTERACTING MOLECULES AND FOR THE PURIFICATION OF KINASE PROTEINS” (Cellzone AG, priority 2009, published 2012).

Columns and labels:
Experiment in all cases: Kinobeads competition binding with immobilized CZC25342, mixed HeLa placenta lysates (Example 5, Table 7)
[1] = target: T1, kinases from mixed HeLa placenta lysates (Homo sapiens, UniProt O14965); settings: kinase AurA; 10 μM free compound; HeLa Placenta lysate mix
T1 construct: capturing and identification of kinases from mixed HeLa placenta lysates; endogenous in cells; host or cells: mixed lysate of HeLa cells and placenta tissue
In short: (§1)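 Mixed HeLa/placenta lysate was preincubated with 10 μM free CZC25342 or DMSO, followed by capture on beads bearing immobilized compound. Bound proteins were eluted, separated by SDS-PAGE, trypsin-digested, iTRAQ-labelled and quantified by LC-MS/MS. Percent competition was taken against the DMSO control.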

[2] = target: T2, kinases from mixed HeLa placenta lysates (Homo sapiens, UniProt O95382); settings: kinase MAP3K6; 10 μM free compound; HeLa Placenta lysate mix
T2 construct: capturing and identification of kinases from mixed HeLa placenta lysates; endogenous in cells; host or cells: mixed lysate of HeLa cells and placenta tissue
In short: as §1

[3] = target: T3, kinases from mixed HeLa placenta lysates (Homo sapiens, UniProt P06493); settings: kinase CDC2; 10 μM free compound; HeLa Placenta lysate mix
T3 construct: capturing and identification of kinases from mixed HeLa placenta lysates; endogenous in cells; host or cells: mixed lysate of HeLa cells and placenta tissue
In short: as §1

[4] = target: T4, kinases from mixed HeLa placenta lysates (Homo sapiens, UniProt P07332); settings: kinase FES; 10 μM free compound; HeLa Placenta lysate mix
T4 construct: capturing and identification of kinases from mixed HeLa placenta lysates; endogenous in cells; host or cells: mixed lysate of HeLa cells and placenta tissue
In short: as §1

[5] = target: T5, kinases from mixed HeLa placenta lysates (Homo sapiens, UniProt P16591); settings: kinase FER; 10 μM free compound; HeLa Placenta lysate mix
T5 construct: capturing and identification of kinases from mixed HeLa placenta lysates; endogenous in cells; host or cells: mixed lysate of HeLa cells and placenta tissue
In short: as §1

[6] = target: T6, kinases from mixed HeLa placenta lysates (Homo sapiens, UniProt P19784); settings: kinase CK2a2; 10 μM free compound; HeLa Placenta lysate mix
T6 construct: capturing and identification of kinases from mixed HeLa placenta lysates; endogenous in cells; host or cells: mixed lysate of HeLa cells and placenta tissue
In short: as §1

[7] = target: T7, kinases from mixed HeLa placenta lysates (Homo sapiens, UniProt P35916); settings: kinase FLT4; 10 μM free compound; HeLa Placenta lysate mix
T7 construct: capturing and identification of kinases from mixed HeLa placenta lysates; endogenous in cells; host or cells: mixed lysate of HeLa cells and placenta tissue
In short: as §1

[8] = target: T8, kinases from mixed HeLa placenta lysates (Homo sapiens, UniProt P35968); settings: kinase KDR; 10 μM free compound; HeLa Placenta lysate mix
T8 construct: capturing and identification of kinases from mixed HeLa placenta lysates; endogenous in cells; host or cells: mixed lysate of HeLa cells and placenta tissue
In short: as §1

[9] = target: T9, kinases from mixed HeLa placenta lysates (Homo sapiens, UniProt P36897); settings: kinase TGFbR1; 10 μM free compound; HeLa Placenta lysate mix
T9 construct: capturing and identification of kinases from mixed HeLa placenta lysates; endogenous in cells; host or cells: mixed lysate of HeLa cells and placenta tissue
In short: as §1

[10] = target: T10, kinases from mixed HeLa placenta lysates (Homo sapiens, UniProt P48426); settings: kinase PIP5K2A; 10 μM free compound; HeLa Placenta lysate mix
T10 construct: capturing and identification of kinases from mixed HeLa placenta lysates; endogenous in cells; host or cells: mixed lysate of HeLa cells and placenta tissue
In short: as §1

[11] = target: T11, kinases from mixed HeLa placenta lysates (Homo sapiens, UniProt P54646); settings: kinase AMPKa2; 10 μM free compound; HeLa Placenta lysate mix
T11 construct: capturing and identification of kinases from mixed HeLa placenta lysates; endogenous in cells; host or cells: mixed lysate of HeLa cells and placenta tissue
In short: as §1

[12] = target: T12, kinases from mixed HeLa placenta lysates (Homo sapiens, UniProt P68400); settings: kinase CK2a1; 10 μM free compound; HeLa Placenta lysate mix
T12 construct: capturing and identification of kinases from mixed HeLa placenta lysates; endogenous in cells; host or cells: mixed lysate of HeLa cells and placenta tissue
In short: as §1

[13] = target: T13, kinases from mixed HeLa placenta lysates (Homo sapiens, UniProt P78356); settings: kinase PIP5K2B; 10 μM free compound; HeLa Placenta lysate mix
T13 construct: capturing and identification of kinases from mixed HeLa placenta lysates; endogenous in cells; host or cells: mixed lysate of HeLa cells and placenta tissue
In short: as §1

[14] = target: T14, kinases from mixed HeLa placenta lysates (Homo sapiens, UniProt Q04912); settings: kinase RON; 10 μM free compound; HeLa Placenta lysate mix
T14 construct: capturing and identification of kinases from mixed HeLa placenta lysates; endogenous in cells; host or cells: mixed lysate of HeLa cells and placenta tissue
In short: as §1

[15] = target: T15, kinases from mixed HeLa placenta lysates (Homo sapiens, UniProt Q13163); settings: kinase MAP2K5; 10 μM free compound; HeLa Placenta lysate mix
T15 construct: capturing and identification of kinases from mixed HeLa placenta lysates; endogenous in cells; host or cells: mixed lysate of HeLa cells and placenta tissue
In short: as §1

[16] = target: T16, kinases from mixed HeLa placenta lysates (Homo sapiens, UniProt Q13557); settings: kinase CaMK2d; 10 μM free compound; HeLa Placenta lysate mix
T16 construct: capturing and identification of kinases from mixed HeLa placenta lysates; endogenous in cells; host or cells: mixed lysate of HeLa cells and placenta tissue
In short: as §1

[17] = target: T17, kinases from mixed HeLa placenta lysates (Homo sapiens, UniProt Q14164); settings: kinase IKKe; 10 μM free compound; HeLa Placenta lysate mix
T17 construct: capturing and identification of kinases from mixed HeLa placenta lysates; endogenous in cells; host or cells: mixed lysate of HeLa cells and placenta tissue
In short: as §1

[18] = target: T18, kinases from mixed HeLa placenta lysates (Homo sapiens, UniProt Q14289); settings: kinase PYK2; 10 μM free compound; HeLa Placenta lysate mix
T18 construct: capturing and identification of kinases from mixed HeLa placenta lysates; endogenous in cells; host or cells: mixed lysate of HeLa cells and placenta tissue
In short: as §1

[19] = target: T19, kinases from mixed HeLa placenta lysates (Homo sapiens, UniProt Q16513); settings: kinase PKN2; 10 μM free compound; HeLa Placenta lysate mix
T19 construct: capturing and identification of kinases from mixed HeLa placenta lysates; endogenous in cells; host or cells: mixed lysate of HeLa cells and placenta tissue
In short: as §1

[20] = target: T20, kinases from mixed HeLa placenta lysates (Homo sapiens, UniProt Q5S007); settings: kinase LRRK2; 10 μM free compound; HeLa Placenta lysate mix
T20 construct: capturing and identification of kinases from mixed HeLa placenta lysates; endogenous in cells; host or cells: mixed lysate of HeLa cells and placenta tissue
In short: as §1

[21] = target: T21, kinases from mixed HeLa placenta lysates (Homo sapiens, UniProt Q9NWZ3); settings: kinase IRAK4; 10 μM free compound; HeLa Placenta lysate mix
T21 construct: capturing and identification of kinases from mixed HeLa placenta lysates; endogenous in cells; host or cells: mixed lysate of HeLa cells and placenta tissue
In short: as §1

[22] = target: T22, kinases from mixed HeLa placenta lysates (Homo sapiens, UniProt Q9UHD2); settings: kinase TBK1; 10 μM free compound; HeLa Placenta lysate mix
T22 construct: capturing and identification of kinases from mixed HeLa placenta lysates; endogenous in cells; host or cells: mixed lysate of HeLa cells and placenta tissue
In short: as §1

[23] = target: T23, kinases from mixed HeLa placenta lysates (Homo sapiens, UniProt Q9Y616); settings: kinase IRAK3; 10 μM free compound; HeLa Placenta lysate mix
T23 construct: capturing and identification of kinases from mixed HeLa placenta lysates; endogenous in cells; host or cells: mixed lysate of HeLa cells and placenta tissue
In short: as §1

Competition % AurA [1]: 93.6%
Competition % MAP3K6 [2]: 91.6%
Competition % CDC2 [3]: 94.3%
Competition % FES [4]: 96.9%
Competition % FER [5]: 96.7%
Competition % CK2a2 [6]: 95.4%
Competition % FLT4 [7]: 88.2%
Competition % KDR [8]: 92.5%
Competition % TGFbR1 [9]: 95.6%
Competition % PIP5K2A [10]: 98.7%
Competition % AMPKa2 [11]: 97.1%
Competition % CK2a1 [12]: 95.2%
Competition % PIP5K2B [13]: 97.2%
Competition % RON [14]: 96%
Competition % MAP2K5 [15]: 87.4%
Competition % CaMK2d [16]: 40.6%
Competition % IKKe [17]: 69%
Competition % PYK2 [18]: 96.3%
Competition % PKN2 [19]: 98%
Competition % LRRK2 [20]: 87.8%
Competition % IRAK4 [21]: 95.6%
Competition % TBK1 [22]: 88.8%
Competition % IRAK3 [23]: 86.2%
Structure (SMILES): CS(=O)(=O)Nc1ccccc1Nc1nc(Nc2cccc(OCCN)c2)ncc1F [CZC25342, N-(2-(2-(3-(2-aminoethoxy)phenylamino)-5-fluoropyrimidin-4-ylamino)phenyl)methanesulfonamide]
